Data from paper PMC7070443, “New Hybrid Pyrazole and Imidazopyrazole Antinflammatory Agents Able to Reduce ROS Production in Different Biological Targets” (Molecules, 2020).
Where “and” joins values, the source holds several entries; their conditions need not be identical. Equal entries are not always repeated.

Assays:
human platelets [1] = assay: Platelet aggregation inhibition (Born's method, thrombin-stimulated washed platelets); type: cell-based; conditions: 0.1 U/mL thrombin, mean +/- SD, at least six experiments in duplicate
Method: (§1) Freshly drawn venous blood from healthy volunteers of the “Centro Trasfusionale, Ospedale San Martino” in Genoa was collected into 130 mM aqueous trisodium citrate anticoagulant solution (9:1). The donors claimed to have not taken drugs known to interfere with platelet function during two weeks prior to blood collection and gave their informed consent. Washed platelets were prepared centrifuging whole blood at 100× g for 20 min. The obtained platelet-rich plasma was then centrifuged at 1100× g for 15 min. Pellet was washed once with pH 5.2 ACD solution (75 mM trisodium citrate, 42 mM citric acid and 136 mM glucose), centrifuged at 1100× g for 15 min and then re-suspended in pH 7.4 Hepes buffer (145 mM NaCl, 5 mM KCl, 1 mM MgSO4, 10 mM glucose, 10 mM HEPES).
Platelet aggregation was performed in a Bio-Data Aggregometer (Bio-Data Corporation, Horsham, PA, USA) according to Born’s method and quantified by the light transmission reached within 6 min at 37 °C. Briefly, washed platelets (3.0 × 10^8/mL) were pre-incubated for 3 min at 37 °C with saline, compound 4 or 5 before the addition of 0.1 U/mL thrombin. The IC50 values were calculated as above detailed.

human platelets [2] = assay: ROS production inhibition in thrombin-stimulated washed platelets (DCFH-DA, flow cytometry); type: cell-based; conditions: for IC50: washed human platelets, 0.1 U/mL thrombin, DCFH-DA, mean +/- SD, at least six experiments in duplicate; for activity towards ROS production in platelets (in words): human platelets, thrombin stimulated
Method: as §1
ROS production was quantified as previously reported by DCFH-DA, a ROS-sensitive probe that yields upon oxidation the fluorescent adduct DCF that is trapped inside the cells. Briefly, washed platelets (1.0 × 10^8/mL), pre-incubated with saline, compounds 4 or 5, for 15 min at 37 °C, were stimulated by 0.1 U/mL thrombin. Incubation was stopped by cooling samples in ice bath and then samples were immediately analyzed in a Merck Millipore Bioscience Guava easyCyte flow cytometer (Merk Millipore, Burlington, MA, USA). The reported IC50 value is the molar concentration of the compound able to obtain 50% inhibition of the […] induced by the agonist and is calculated by the percentage of inhibition that is the inhibition of the […] measured in the presence of the agent compared with that measured in a control sample containing saline, carried out under the same conditions.

human neutrophils = assay: Flow cytometric evaluation of ROS production in fMLP-activated neutrophils (DCFH-DA); type: cell-based; conditions: data not shown
Text: Heparinized (heparin 10 U/mL Vister, PfizerItalia, Borgo San Michele, Latina, Italy) venous blood was obtained from healthy male volunteers after written informed consent. Neutrophils were isolated by dextran sedimentation (Dextran 70.000 Plander, Fresenius Kabi Italia, Verona, Italy), and subsequent centrifugation on a Ficoll-Hypaque density gradient (Lympholyte-I from Cedarlane Laboratories Ltd. Hornby, ON, Canada), as described. Contaminating erythrocytes were removed by hypotonic lysis. Neutrophils were washed and resuspended in Hanks’balanced salt solution (HBSS; EuroCLone, Wetherby West, Yorkshire, UK) mixed with Dulbecco’s PBS (EuroClone; HBBS:PBS. Final cell suspensions contained 97% or more neutrophils and more than 98% viable cells, as evaluated by a trypan blue test kit (Sigma Aldrich).
Flow cytometric analysis of neutrophil oxidative metabolism was carried out according to literature method. Briefly, neutrophils, were cultured for 1 h with or without 4d and 5d at different concentration. Thereafter, neutrophils were pre-treated with 2′-7′-dichlorofluorescein-diacetate (DCFH-DA; Sigma, Milan, Italy) ([…]), During the incubation time, DCFH-DA entered into the cells, and it was cleaved by intracellular esterases to give non-fluorescence DCFH trapped within the cells. After washing in PBS, the cells were incubated for 15 min at room temperature in the presence or absence of N-formyl-L-methionin-L-leucyl-L-phenylalanine (fMLP; Sigma, Milan, Italy) ([…]) for 30 min at 37 °C. During this period, intracellular ROS oxidized DCFH to give a green fluorescence […]. The reaction was stopped by keeping the samples on ice before being analyzed by flow cytometry (FC500, Beckman Coulter).

| Molecule | IC50 (human platelets [1]; Platelet) | IC50 (human platelets [2]; Homo sapiens, Platelet) | IC50 (human platelets [2]) | melting point | activity towards ROS production in platelets (in words) (human platelets [2]) | IC50 (human platelets [1]) | activity towards ROS production in neutrophils (in words) (human neutrophils) |
| --- | --- | --- | --- | --- | --- | --- | --- |
| COc1cc(/C=N/NC(=O)c2cnn(CC(O)c3ccccc3)c2N)ccc1OC(F)F (centres unmarked) [4a, (E)-5-Amino-N′-(4-(difluoromethoxy)-3-methoxybenzylidene)-1-(2-hydroxy-2-phenylethyl)-1H-pyrazole-4-carbohydrazide] | 7.6 ± 0.5 µM | ~10 µM | 10.1 ± 2.1 µM | 119 to 121 °C |  |  |  |
| COc1cccc(/C=N/NC(=O)c2cnn(CC(O)c3ccccc3)c2N)c1OC1CCCC1 (centres unmarked) [4b, (E)-5-Amino-N′-(2-(cyclopentyloxy)-3-methoxybenzylidene)-1-(2-hydroxy-2-phenylethyl)-1H-pyrazole-4-carbohydrazide] | 64 ± 2.5 µM | 20.5 ± 2.5 µM |  | 180 to 181 °C |  |  |  |
| CCC(C)Oc1cc(/C=N/NC(=O)c2cnn(CC(O)c3ccccc3)c2N)ccc1OC (centres unmarked) [4c, (E)-5-Amino-N′-(3-(sec-butoxy)-4-methoxybenzylidene)-1-(2-hydroxy-2-phenylethyl)-1H-pyrazole-4-carbohydrazide] | 57.1 ± 1.6 µM | 16.7 ± 1.1 µM |  | 190 to 193 °C |  |  |  |
| Nc1c(C(=O)N/N=C/c2ccc(OC(F)F)c(OC3CCCC3)c2)cnn1CC(O)c1ccccc1 (centres unmarked) [4e, (E)-5-Amino-N′-(3-(cyclopentyloxy)-4-(difluoromethoxy)benzylidene)-1-(2-hydroxy-2-phenylethyl)-1H-pyrazole-4-carbohydrazide] | 29.4 ± 4.4 µM | 32.8 ± 2.8 µM |  | 178 to 180 °C |  |  |  |
| Nc1c(C(=O)N/N=C/c2ccc(OC(F)F)c(Oc3ccccc3)c2)cnn1CC(O)c1ccccc1 (centres unmarked) [4f, (E)-5-Amino-N′-(4-(difluoromethoxy)-3-phenoxybenzylidene)-1-(2-hydroxy-2-phenylethyl)-1H-pyrazole-4-carbohydrazide] | 9.8 ± 1.7 µM | ~10 µM | 8.6 ± 2.2 µM | 184 to 186 °C |  |  |  |
| Nc1c(C(=O)N/N=C/c2ccc(OC(F)F)c(OCc3ccccc3)c2)cnn1CC(O)c1ccccc1 (centres unmarked) [4g, (E)-5-Amino-N′-(3-(benzyloxy)-4-(difluoromethoxy)benzylidene)-1-(2-hydroxy-2-phenylethyl)-1H-pyrazole-4-carbohydrazide] | 11 ± 1.2 µM | ~10 µM | 9.5 ± 2.6 µM | 144 to 146 °C |  |  |  |
| COc1cc(/C=N/NC(=O)c2cnn(CC(O)c3ccccc3)c2N)cc(OC)c1OC (centres unmarked) [4h, (E)-5-Amino-1-(2-hydroxy-2-phenylethyl)-N′-(3,4,5-trimethoxybenzylidene)-1H-pyrazole-4-carbohydrazide] | > 200 µM | > 200 µM |  |  | inactive |  |  |
| COc1cccc(/C=N/NC(=O)c2cnn(CC(O)c3ccccc3)c2N)c1Oc1ccccc1 (centres unmarked) [4i, (E)-5-Amino-1-(2-hydroxy-2-phenylethyl)-N′-(3-methoxy-2-phenoxybenzylidene)-1H-pyrazole-4-carbohydrazide] | > 200 µM | > 200 µM |  | 207 to 209 °C | completely inactive |  |  |
| COc1cccc(/C=N/NC(=O)c2cnn(CC(O)c3ccccc3)c2N)c1OCc1ccccc1 (centres unmarked) [4j, (E)-5-Amino-N′-(2-(benzyloxy)-3-methoxybenzylidene)-1-(2-hydroxy-2-phenylethyl)-1H-pyrazole-4-carbohydrazide] | > 200 µM | > 200 µM |  | 198 to 200 °C | completely inactive |  |  |
| COc1ccc(/C=N/NC(=O)c2cnn3c2NC(c2ccccc2)C3)cc1OC (centres unmarked) [5a, (E)-N′-(3,4-Dimethoxybenzylidene)-2-phenyl-2,3-dihydro-1H-imidazo[1,2-b]pyrazole-7-carbohydrazide] | 31.5 ± 5.2 µM | 37.2 ± 2.5 µM |  | 206 to 207 °C |  |  |  |
| COc1cccc(/C=N/NC(=O)c2cnn3c2NC(c2ccccc2)C3)c1OC1CCCC1 (centres unmarked) [5b, (E)-N′-(2-(Cyclopentyloxy)-3-methoxybenzylidene)-2-phenyl-2,3-dihydro-1H-imidazo[1,2-b]pyrazole-7-carbohydrazide] | 59.1 ± 5.5 µM | 66.7 ± 5.7 µM |  |  |  |  |  |
| CCC(C)Oc1cc(/C=N/NC(=O)c2cnn3c2NC(c2ccccc2)C3)ccc1OC (centres unmarked) [5c, (E)-N′-(3-(sec-Butoxy)-4-methoxybenzylidene)-2-phenyl-2,3-dihydro-1H-imidazo[1,2-b]pyrazole-7-carbohydrazide] | 70.9 ± 4 µM | 71.4 ± 6 µM |  | 130 to 131 °C |  |  |  |
| O=C(N/N=C/c1ccc(OC(F)F)c(OC2CCCC2)c1)c1cnn2c1NC(c1ccccc1)C2 (centres unmarked) [5e, (E)-N′-(3-(cyclopentyloxy)-4-(difluoromethoxy)benzylidene)-2-phenyl-2,3-dihydro-1H-imidazo[1,2-b]-pyrazole-7-carbohydrazide] | 70.5 ± 8 µM | 78.8 ± 5.6 µM |  |  |  |  |  |
| COc1ccc(/C=N/NC(=O)c2cnn3c2NC(c2ccccc2)C3)cc1OC1CCCCC1 (centres unmarked) [5f, (E)-N′-(3-(Cyclohexyloxy)-4-(methoxy)benzylidene)-2-phenyl-2,3-dihydro-1H-imidazo[1,2-b]pyrazole-7-carbohydrazide] | 61.6 ± 6.5 µM | 59.9 ± 5.7 µM |  | 119 to 120 °C |  |  |  |
| O=C(N/N=C/c1ccc2c(c1)OCO2)c1cnn2c1NC(c1ccccc1)C2 (centres unmarked) [5g, (E)-N′-(benzo[d][1,3]dioxol-5-ylmethylene)-2-phenyl-2,3-dihydro-1H-imidazo[1,2-b]pyrazole-7-carbohydrazide] | 67 ± 6.6 µM | 77.9 ± 7.1 µM |  |  |  |  |  |
| COc1cc(/C=N/NC(=O)c2cnn3c2NC(c2ccccc2)C3)cc(OC)c1OC (centres unmarked) [5h, (E)-2-Phenyl-N′-(3,4,5-trimethoxybenzylidene)-2,3-dihydro-1H-imidazo[1,2-b]pyrazole-7-carbohydrazide] | > 200 µM | > 200 µM |  |  | inactive |  |  |
| COc1cccc(/C=N/NC(=O)c2cnn3c2NC(c2ccccc2)C3)c1Oc1ccccc1 (centres unmarked) [5i, (E)-N′-(2-(Phenoxy)-3-(methoxy)benzylidene)-2-phenyl-2,3-dihydro-1H-imidazo[1,2-b]pyrazole-7-carbo-hydrazide] |  |  | > 200 µM |  | completely inactive | > 200 µM |  |
| COc1cccc(/C=N/NC(=O)c2cnn3c2NC(c2ccccc2)C3)c1OCc1ccccc1 (centres unmarked) [5j, (E)-N′-(2-(Benzyloxy)-3-(methoxy)benzylidene)-2-phenyl-2,3-dihydro-1H-imidazo[1,2-b]pyrazole-7-carbohydrazide] | > 200 µM | > 200 µM |  | 200 to 202 °C | completely inactive |  |  |
| COc1ccc(/C=N/NC(=O)c2cnn3c2N(C(C)=O)C(c2ccccc2)C3)cc1OC1CCCC1 (centres unmarked) [5k, (E)-1-acetyl-N′-(3-(cyclopentyloxy)-4-methoxybenzylidene)-2-phenyl-2,3-dihydro-1H-imidazo[1,2-b]pyrazole-7-carbohydrazide] | > 200 µM | > 200 µM |  | 140 to 141 °C | completely inactive |  |  |
| NNC(=O)c1cnn2c1NC(c1ccccc1)C2 (centres unmarked) [compound 12, 2-Phenyl-2,3-dihydro-1H-imidazo[1,2-b]pyrazole-7-carbohydrazide] |  |  |  |  | completely inactive |  | completely inactive |
| (E)-5-Amino-N′-(3-(cyclopentyloxy)-4-methoxybenzylidene)-1-(2-hydroxy-2-phenylethyl)-1H-pyrazole-4-carbohydrazide [4k] |  |  | 90 µM and 92.7 µM |  |  | 86.1 ± 7.8 µM |  |
